The text below walks through data of patent US12441763B2, “Hangtaimycin derivatives and their preparation methods and application” (WUHAN UNIVERSITY, priority 2022, dated 2025).

Molecules are shown by their SMILES. Numbered stars: 1 amine (or outer) side, 2 acyl side, 3 side chain; on linkers, the order of the positions; unused ones are H or OH. Square brackets hold non-standard residues; d marks the D form. Peptide text beside a SMILES is read from it. * marks the point of attachment. X3 = O=C1C=C(CCC/C=C/C=C/C(=O)[*:2])CC(C(O)N[*:1])O1; X4 = O=C1C=C(CCC/C=C/C=C/C(=O)[*:2])CC(CN[*:1])O1; NMeW = CN[CH](Cc1c[nH]c2ccccc12)C(=O)O; X2 = C/C(=C\C(C)N[*:1])C(=O)[*:2]; Dhb = C/C=C(\N)C(=O)O; X1 = C/C=C/C=C\C(=O)*; Dha = C=C(N)C(=O)O

For assay [1], the system named is HepG2 cells. The assay can be described thus: Cellular assay for hepatoprotective activity, CCl4-induced liver injury cell model. The assay is classed as cell-based. The conditions noted are these: compared with the CCl4 group; HepG2 cell homogenates. The protocol:
HepG2 cells were seeded into 24-well plates and kept at 37° C. in 5% CO2 in order to achieve 80% fusion. To evaluate the effects of HTMA, HTMB, and HTMP on aspartate aminotransferase (AST) and alanine aminotransferase (ALT) activity, and compare the results with those of Silymarin (positive control) (FIG. 26), a cellular assay for hepatoprotective activity was carried out using a CCl4-induced liver injury cell model. The cells were treated with the compounds followed by ultrasound disruption and cell homogenization to prepare the cell homogenates for analysis.

For assay [2], the system named is carrageenan-induced paw inflammation. The assay can be described thus: Anti-inflammatory effect in inflammatory model induced by carrageenan (paw). The assay is classed as in vivo, Kunming mice. The conditions noted are these: 10 mg/mL; for right hind foot thickness: 10 μL subcutaneous into right hind paw, 4 hours after carrageenan injection, vs carrageenan+solvent group. The protocol: Male Kunming mice weighing 18˜22 g were adaptively reared for 1 day, and then randomly divided into […] (5˜6 mice per group): the saline+solvent group, the saline+HTM group, the saline+HTMP group, the saline+HTMA group, the saline+HTMB group, the saline+rapamycin (250 nM) group, the carrageenan+solvent group, the carrageenan+HTM group, the carrageenan+HTMP group, the carrageenan+HTMA group, the carrageenan+HTMB group, and the carrageenan+rapamycin (250 nM) group. Where doses used for HTM, HTMP, HTMA, and HTMB were set at 1, 3, and 10 mg/mL, and their solutions all contained 5% DMSO. Experiments were designed based on previous studies (Zhang et al., 2018). Carrageenan was used to induce paw inflammation, and the experimental procedure was as follows:
(1) The thickness of the right hind foot of mice was measured with a vernier caliper before the experiment, and the measurement site was marked.
(2) The experimental group was then subcutaneously injected into the right hind paw with 10 μL of different concentrations of compound solutions. The control group was injected with 10 μL saline into the right hind paw.
(3) After administration, the carrageenan group was injected subcutaneously with 30 μL of 1% carrageenan solution into the right hind paw, and the other groups were injected with an equal volume of saline. The thickness of the right hind foot of each mouse was measured at the same site every 1 hour for the following 4 hours to observe the effect of the compounds on the change in foot thickness.
Background: The carrageenan paw model is a standard test of acute inflammation.

In assay [3] the test system is acute inflammatory visceral pain caused by acetic acid. The assay can be described thus: Writhing test (acetic acid). Conditions: 30 minutes before 0.6% acetic acid i.p., counted within 20 minutes, vs solvent group, P<0.05. The assay is classed as in vivo, Balb/c mice. The protocol:
The writhing test: Male Balb/c mice weighting 18˜22 g were randomly divided into four groups (9˜10 per group): the vehicle group (DMSO:saline=1:4, 1 ml/kg), the HTMB (1 mg/kg) group, the HTMB (3 mg/kg) group, and the HTMB (10 mg/kg) group. After tail vein administration for 30 minutes, mice were injected intraperitoneally with 10 mL/kg of freshly prepared 0.6% acetic acid (Rediet Tesfaye, et al. 2020), and the number of body twists of mice was observed and recorded within 20 minutes.
A general note: An intraperitoneal irritant provokes the stretching counted in writhing tests.

In a further assay the test system is morphine-induced CPP. The assay can be described thus: Conditioned place preference (CPP) experiments. Conditions: HTMB 3 mg/kg + morphine vs saline + morphine; test on the 10th day; P<0.05. The assay is classed as in vivo, SD rats. The protocol: Conditioned place preference (CPP) experiments: Morphine, an opioid representative, and cocaine, a euphoric representative, were used to establish a model of addiction. On the first day, the baseline was assessed by placing the rats in the center compartment of the CPP apparatus and allowing ad libitum access to all compartments for 15 minutes. And then, male SD rats were divided into the saline+morphine group, the HTMB (3 mg/kg)+morphine group, the saline+cocaine group, and the HTMB (3 mg/kg, i.p.)+cocaine group. The rats were exposed to CPP training from day 2 to 9. On the 10th day, the channel between the three boxes was opened, and the rats were allowed to move freely in the three boxes for 15 minutes for the CPP test.

Assay [4] is described as follows: Antioxidant activity, DPPH free radical scavenging. The assay is classed as biochemical. The conditions noted are these: 1~50 μg/mL, 0.1 mM DPPH, absorbance at 517 nm. The protocol: In this experiment, a 0.1 mM DPPH solution was prepared with ethanol, and each sample solution/dispersion was separately mixed with the DPPH solution in order to dilute it into a reaction product with a concentration gradient of 1˜50 μg/mL to evaluate the concentration-dependent antioxidant potential. The reaction product was measured for its absorbance (AS) at 517 nm using an ultraviolet-visible spectrophotometer, and its antioxidant activity was measured using DPPH removal as an indicator. The percentage of DPPH free radical scavenging is calculated by the following formula: […]
AS is the absorbance of the sample and A0 is the absorbance of the control (only DPPH solution).
(In general: Loss of DPPH colour is used to gauge radical scavenging.)

The subject of another assay is bladder cancer. The assay can be described thus: Antitumor activity, MTT cell viability, bladder cancer. The assay is classed as cell-based. The conditions noted are these: 50 μg/mL, 24 hours, P<0.01. The protocol:
(§1) In a 96-well microplate, 100 μL of culture medium was put in each well and inoculate four cell strains with a fusion degree of 80% at a density of 8×10^3 cells. Cells were grown at 37° C., CO2 (5%) and air (95%). Each 96-well plate was placed with a concentration gradient of 0˜100 μg/mL of test compounds HTM, HTMA, HTMB, and HTMP. After 24 hours of incubation, the medium was removed, and 0.5 mg/mL MTT solution was added to each medium with cells and continue to incubate the cells for 4 hours at 37° C. Then 100 μL of DMSO was added to dissolve formazan crystals. Finally, absorbance was measured at 570 nm using a microplate reader (Bioteck EON, USA). The viability of the cells was calculated as the percentage of cell viability compared to vehicle control-treated cells, which were arbitrarily assigned as 100% viability. Each independent experiment was repeated five times. (*P<0.05, **P<0.01, ***P<0.001)

The next assay has as its system renal cancer. The assay can be described thus: Antitumor activity, MTT cell viability, renal cancer. The assay is classed as cell-based. Conditions: […], 24 hours, P<0.01. The protocol:
as §1

The subject of the next assay is breast cancer. The assay can be described thus: Antitumor activity, MTT cell viability, breast cancer. The assay is classed as cell-based. The conditions noted are these: 50 μg/mL, 24 hours. The protocol:
as §1

Assay [5] has as its system alpha-naphthyl isothiocyanate-induced liver injury. The assay can be described thus: Animal assay for hepatoprotective activity, alpha-naphthyl isothiocyanate-induced liver injury. The assay is classed as in vivo, Wistar rats. The protocol: Male Wistar rats weighing around 220 g were randomly divided into 7 groups with 12 rats in each group. After grouping, they were fed a standard diet under standard conditions and were orally gavaged continuously. The dosages of the positive control groups obeticholic acid and silymarin were 10 mg/kg and 5 mg/kg respectively. The HTMA group was divided into low, medium, and high-dose groups with doses of 2.5, 5, and 10 mg/kg. The control and model groups were orally gavaged with 0.5% sodium carboxymethyl cellulose (solvent) daily. After 7 days of gavage, the rats fasted for 12 hours. On the 8th day, their weight was measured, and all rats except for the control group were intraperitoneally injected with alpha-naphthyl isothiocyanate (50 mg/kg, dissolved in olive oil) to induce liver injury. The rats in the control group were intraperitoneally injected with the same amount of olive oil. After two more days of gavage and 12 hours of fasting, blood samples were taken to detect biochemical indicators reflecting the degree of liver cell damage (FIGS. 27A˜27C) and bile stasis (FIGS. 28A˜28E), and liver immunohistochemical detection was performed (FIGS. 29A, 29B and 30A˜30F).

In assay [6] the test system is HepG2 cells. The assay can be described thus: Protection of the cell membrane of HepG2 after CCl4 injury (DiO/DAPI confocal imaging). The assay is classed as cell-based. Conditions: HTMA pre-treatment 12 hours, then 70% CCl4 injury fluid 1 hour; vs model group. The protocol:
Well-growing HepG2 cells were plated into confocal dishes with 1 mL of cell suspension containing 5×10^5 cells per dish. After 24 hours of incubation, pre-treat the cells with HTMA for 12 hours. The culture medium was removed from the confocal dish, then phenol red-free DMEM medium was added to the control group, 70% CCl4 injury fluid was added to the model and treatment groups. The dishes were placed in a 37° C. incubator for 1 hour to induce liver injury. After modeling, the culture medium was removed, the cells were rinsed with PBS, and fixed with 4% paraformaldehyde at room temperature for 10 minutes. Then the cells were rinsed with PBS three times, each time for 5 minutes. 10 μM DiO was added to the dish and stained the cells at room temperature for 30 minutes. Then the cells were rinsed with PBS three times, each time for 5 minutes. DAPI was dropped to counterstain the cell nucleus, incubating it in the dark for 30 minutes, and then the cells were rinsed with PBS three times. The images of the cells were captured using a laser scanning confocal microscope (Leica TCS SP8). The experimental design includes two positive controls: silymarin(S) and obeticholic acid (OBC).

The mark [7] stands for this setting: high-dose HTMA (HH) 10 mg/kg, oral gavage, vs liver injury model group, blood.

With `C=C(NC(=O)/C=C/C=C/CCCC1=CC(=O)OC(CNC(=O)/C(C)=C/C(C)NC(=O)/C=C\C=C\C)C1)C(=O)NC(C(=O)N/C(=C\C)C(=O)N(C)C(Cc1c[nH]c2ccccc12)C(=O)OC)C(C)OC` (stereo not shown) [HTMB, Hangtaimycin B] (X1-[X2][X4][Dha]T(Me)[Dhb][NMeW]-OMe; configuration not given here), the ALT levels entry with HepG2 cells [1] is “significantly reduced”. Further, the AST levels result in the assay with HepG2 cells [1] is “significantly reduced”. Also, the “improvement of the inflammation caused by carrageenan, comparison among HTMP, HTMA and HTMB” value in assay [2] is “best results”. The “right hind foot thickness” value in assay [2] (P<0.05) is listed as “reduced”. Further, in [2] (carrageenan+HTMB group vs carrageenan+solvent group, P<0.05), the “number of leukocytes per unit area (HE staining)” value was “statistical difference”. Further, the “number of body twists” value in assay [3] (3 mg/kg tail vein) and in [3] (10 mg/kg tail vein) was “significantly lower” in each case. Besides, the “CPP scores, morphine-induced CPP” value in the assay with morphine-induced CPP is recorded as “inhibit”. Moreover, in assay [4], the “antioxidant capacity (DPPH free radical scavenging)” value is “have antioxidant capacity”. In addition, the “survival rate of bladder cancer” value with bladder cancer was “significantly inhibited”. For the same compound, the “survival rate of renal cancer” value with renal cancer is recorded as “significantly inhibited”. Also, the “survival rate of breast cancer” value with breast cancer (P<0.05) was “significantly inhibited”.

`C=C(NC(=O)/C=C/C=C/CCCC1=CC(=O)OC(C(O)NC(=O)/C(C)=C/C(C)NC(=O)/C=C\C=C\C)C1)C(=O)NC(C(=O)N/C(=C\C)C(=O)N(C)C(Cc1c[nH]c2ccccc12)C(=O)OC)C(C)OC` (stereo not shown) [HTMA, Hangtaimycin A] (X1-[X2][X3][Dha]T(Me)[Dhb][NMeW]-OMe; configuration not given here): in the assay on HepG2 cells [1], the ALT levels entry is “significantly reduced” and the AST levels result is “significantly reduced”. In addition, the “effects on other biochemical indicators relative to high-dose HTMA” value in [5] (2.5 mg/kg oral gavage (HTMA low dose LH)) was “weaker”. The LDH levels result in [5] (2.5 mg/kg oral gavage (HTMA low dose LH), vs liver injury model group) is “significantly reduced”. For the same compound, in assay [5] (5 mg/kg oral gavage (HTMA medium dose MH; silymarin)), the “effects on other biochemical indicators relative to high-dose HTMA” value is “weaker”. For the same compound, the LDH levels entry in [5] (5 mg/kg oral gavage (HTMA medium dose MH; silymarin), vs liver injury model group) was “significantly reduced”. The “levels of LDH” value in assay [5] (10 mg/kg oral gavage (HTMA high dose HH; obeticholic acid), vs liver injury model group) is given as “significantly reduce”. Further, the “pathological conditions of liver tissue damage (liver tissue staining)” value in [5] (all doses of HTMA (2.5, 5, 10 mg/kg oral gavage), vs liver injury model group) is given as “therapeutic effect”. Further, in assay [5] (setting [7]), the “levels of ALP” value is “significantly reduce”, the “levels of ALT” value is recorded as “significantly reduce”, the “levels of AST” value was “significantly reduce” and the “levels of GGT” value was “significantly reduce”. Moreover, in [5] (setting [7]), the “levels of TBA” value was “significantly reduce” and the “levels of TBIL” value is given as “significantly reduce”. Further, in the assay on HepG2 cells [6], the “cell membrane morphology (DiO fluorescence)” value is reported as “protective effect on the cell membrane”. In addition, the “right hind foot thickness” value in [2] (P<0.05) was “reduced”. Besides, the “antioxidant capacity (DPPH free radical scavenging)” value in [4] is recorded as “does not”. In the assay on bladder cancer, the “survival rate of bladder cancer” value is given as “significantly inhibited”. Besides, the “survival rate of breast cancer” value in the assay on breast cancer (P<0.01) is “significantly inhibited”.
